# Assay results published in patent US20180118721A1, “PYRIMIDINE DERIVATIVES” (Merck Patent GmbH, priority 2015, published 2018).
# pIC50, pKd: −log10 of the molar value. Like-named read-outs stand apart in the source and are kept apart here.
# How the values were obtained:
# [1] = molecular target: T1, purified human recombinant MTH1 (human MTH1, residues 42-197) (Homo sapiens, UniProt P36639); test: MTH1 enzymatic assay (luminescence-based, PPiLight); type: biochemical; settings: 6 μM 8-oxo-dGTP, Table 1, grouped
# T1 construct: human MTH1, residues 42-197, Uniprot-ID: P36639, expressed in E. coli; made in house; host or cells: E. coli
# Description: The IC50 value was determined by a MTH1 enzymatic assay. The assay comprises the principal steps of incubating a mixture of MTH1, the compound in question at different concentrations and 8-oxo-2′-deoxyguanosine-5′-triphosphate (8-oxo-dGTP) in assay buffer. Nucleotide triphosphate hydrolysis by MTH1, i.e. decomposition of 8-oxo-2′-deoxyguanosine-5′-triphosphate, produces 8-oxo-2′-deoxyguanosine-5′-monophosphate (8-oxo-dGMP) and pyrophosphate (PPi). The amount of generated pyrophosphate (PPi) is then measured by a bioluminescent reaction. In detail: The MTH1 (human mutT homologue 1) enzymatic assay is performed as a luminescence-based 384-well assay. […] The assay buffer contains 100 mM Tris-acetate pH 7.5, 40 mM NaCl, 10 mM Mg(OAc)2, 0.005% Tween 20 and 2 mM dithiothreitol (DTT). […] Then, in a second step, the substrate 8-oxo-dGTP is added and the reaction mixture is incubated for 30 minutes at 22° C. The pharmacologically relevant assay volume is 5 PI. The final concentrations in the assay during incubation of the reaction mixture are 0.1-0.2 nM, typically 0.1 nM, MTH1 and 6 μM 8-oxo-dGTP. After incubation of the reaction mixture, the generation of pyrophosphate (PPi) as a result of nucleotide triphosphate (8-oxo-dGTP) hydrolysis by MTH1 is detected using the PPiLight inorganic pyrophosphate assay kit (Lonza) (third step). 2 to 5 μl, such as 3 to 5 μl, typically 3 or 4 μl, for instance 4 μl, of a 1:1 mixture of PPiLight converting reagent (AMP) and PPiLight detection reagent are added to the reaction mixture. In the presence of pyrophosphate, the detection reagent catalyzes the conversion of AMP to ATP. Luciferase then produces light from the newly formed ATP and luciferin. The amount of light produced is directly proportional to the amount of PPi in the sample. Following signal development for 1 h the plates are analysed in an EnVision (PerkinElmer) microplate reader using the ultra sensitive luminescence option. Data are processed employing the Genedata Screener software. In particular, IC50 values are determined in the usual manner (using the Hill Equation) by fitting a dose-response curve to the data points using nonlinear regression analysis.
# Hill Equation: Y=S0+(Sinf−S0)/(1+(10^logIC50/10^c)^n); Y: luminescence signal (response), S0: activity level at zero concentration of test compound, Sinf=activity level at infinite concentration, Hill coefficient n=measure of the slope at IC50, c=concentration in logarithmic units corresponding to the values on the x-axis of the dose response curve plot
# [2] = molecular target: T2, humanMTH1 (aminoacids 42 to 197) (Homo sapiens, UniProt P36639); test: Binding affinities and kinetics on MTH1 surfaces by surface plasmon resonance (SPR); settings: for pKd: SPR, Biacore4000, 25° C., Table 1, grouped, read-out: KD IC50; for residence time: on MTH1, calculated on the basis of the KD values
# T2 construct: humanMTH1 (aminoacids 42 to 197); His tag at the N-terminus; purchased Abnova ab99390; host or cells: E. coli
# Description: The SPR experiments were performed using a Biacore4000 instrument. […] HumanMTH1 was immobilized on Biacore CM5 chips at 25° C. and a flow rate of 10 μL/min using amine coupling at pH 5.5 and in presence of 1 μM MSC2567771B-1 according to Biacore's standard protocol. MTH1 was applied at a concentration of 10 μg/mL and depending on the duration of the injection time immobilization levels between 500 and 2,000 RU were obtained. Sample compounds were applied in form of titration series with a doubling of concentration at each subsequent injection. In general, 10 concentrations were injected covering a dilution range of 500 fold. Before and after each of these titration series the binding capability of the surface was controlled by the injection of the positive control S-Crizotinib at a fixed concentration of 2 μM. Kinetic titration experiments were performed at 25° C. with a flow rate of 30 μL/min, a sample contact time of 90 sec and a dissociation time of 420 sec in running buffer (20 mM Tris-HCl (Tris(hydroxymethyl)-aminomethane HCl) pH 7.40, 150 mM NaCl, 5 mM MgCl2, 1 mM DTT (dithiothreitol), 0.1 mM EGTA (ethylene glycol tetraacetic acid), 0.05% Tween 20) containing 2% DMSO (dimethyl sulfoxide). Buffer injections identical to the sample injections were executed at the beginning of the successive series for the purpose of double referencing. Solvent correction cycles (eight correction points, 1.4%-2.8% DMSO) were run at the same intervals. For surface conditioning ten start-up cycles (buffer injections) were run. Data points were collected at a sample rate of 10 Hz.
# Data sets were processed and analyzed using the software Biacore4000 Evaluation, version 1.0. Solvent corrected and double-referenced association and dissociation phase data were fitted to a simple 1:1 interaction model with mass transport limitations.
# Measured values are indicated as KD IC50 in the Table below.
smiles,measurement,setting,value
"Nc1nc(NC2CC2)cc(N2CCCC2Cc2ccccc2)n1 (stereo not shown) [Example 34, 6-(2-Benzyl-pyrrolidin-1-yl)-N4-cyclopropyl-pyrimidine-2,4-diamine]",pIC50,[1],> 9.00
same,pKd,[2],7.00 to 9.00
"C=CC(=O)Nc1ccc(CCNC(=O)C2CCN(c3cc(NC)nc(N)n3)CC2)cc1 [Example 113, 1-(2-Amino-6-methylamino-pyrimidin-4-yl)-piperidine-4-carboxylic acid [2-(4-acryloylamino-phenyl)-ethyl]-amide]",pIC50,[1],7.00 to 9.00
same,pKd,[2],7.00 to 9.00
"CNc1cc(N2CCCC[C@@H]2Cc2ccc(OC)cc2)nc(N)n1 [Example 116, 6-[(R)-2-(4-Methoxy-benzyl)-piperidin-1-yl]-N4-methyl-pyrimidine-2,4-diamine]",pIC50,[1],> 9.00
same,residence time,[2]; read-out: Residence time,≥ 10 min
"Nc1nc(NC2CC2)cc(N2CCC[C@@H]2Cc2ccccc2Cl)n1 [Example 47, 6-[(R)-2-(2-Chloro-benzyl)-pyrrolidin-1-yl]-N4-cyclopropyl-pyrimidine-2,4-diamine]",pIC50,[1],> 9.00
same,pKd,[2],> 9.00
"Nc1nc(NC2CC2)cc(N2CCCC2c2ccccc2)n1 (stereo not shown) [Example 30, N4-Cyclopropyl-6-(2-phenyl-pyrrolidin-1-yl)-pyrimidine-2,4-diamine]",pIC50,[1],7.00 to 9.00
same,pKd,[2],7.00 to 9.00
"CNc1cc(N2CC(C(=O)NCCc3ccc(S(=O)(=O)F)cc3)C2)nc(N)n1 [Example 108, 4-(2-{[1-(2-Amino-6-methylamino-pyrimidin-4-yl)-azetidine-3-carbonyl]-amino}-ethyl)-benzenesulfonyl fluoride]",pIC50,[1],> 9.00
same,residence time,[2],≥ 10 min
"CC1CCCN1c1cc(NC2CC2)nc(N)n1 (stereo not shown) [Example 33, N4-Cyclopropyl-6-(2-methyl-pyrrolidin-1-yl)-pyrimidine-2,4-diamine]",pIC50,[1],7.00 to 9.00
same,pKd,[2],7.00 to 9.00
"COc1ccccc1CCNc1cc(N2CCC(F)(F)C2)nc(N)n1 [Example 77, 6-(3,3-Difluoro-pyrrolidin-1-yl)-N4-[2-(2-methoxy-phenyl)-ethyl]-pyrimidine-2,4-diamine]",pIC50,[1],7.00 to 9.00
same,pKd,[2],7.00 to 9.00
"Nc1nc(NC2CC2)cc(N2CCc3ccccc32)n1 [Example 35, N4-Cyclopropyl-6-(2,3-dihydro-indol-1-yl)-pyrimidine-2,4-diamine]",pIC50,[1],7.00 to 9.00
same,pKd,[2],7.00 to 9.00
"Nc1nc(NCC2CCCC2)cc(N2CCC(F)(F)C2)n1 [Example 76, N4-Cyclopentylmethyl-6-(3,3-difluoro-pyrrolidin-1-yl)-pyrimidine-2,4-diamine]",pIC50,[1],7.00 to 9.00
same,pKd,[2],7.00 to 9.00
"CNc1cc(N2CCCC[C@H]2Cc2ccc(OC)cc2)nc(N)n1 [Example 117, 6-[(S)-2-(4-Methoxy-benzyl)-piperidin-1-yl]-N4-methyl-pyrimidine-2,4-diamine]",pIC50,[1],> 9.00
same,pKd,[2],> 9.00
"Nc1nc(NC2CC2)cc(N2CC[C@@H](O)C2)n1 [Example 29, (R)-1-(2-Amino-6-cyclopropylamino-pyrimidin-4-yl)-pyrrolidin-3-ol]",pIC50,[1],7.00 to 9.00
same,pKd,[2],7.00 to 9.00
"CNc1cc(N2CC[C@H](O)C2)nc(N)n1 [Example 62, (S)-1-(2-Amino-6-methylamino-pyrimidin-4-yl)-pyrrolidin-3-ol]",pIC50,[1],7.00 to 9.00
same,pKd,[2],7.00 to 9.00
"C[C@H]1[C@H](c2ccccc2)CCN1c1cc(NC2CC2)nc(N)n1 (stereo in doubt) [Example 55, N4-Cyclopropyl-6-((2S,3S)-2-methyl-3-phenyl-pyrrolidin-1-yl)-pyrimidine-2,4-diamine]",pIC50,[1],7.00 to 9.00
same,pKd,[2],7.00 to 9.00
"CNc1cc(N2CCCC2Cc2ccccc2Cl)nc(N)n1 (stereo not shown) [Example 98, 6-[2-(2-Chloro-benzyl)-pyrrolidin-1-yl]-N4-methyl-pyrimidine-2,4-diamine]",pIC50,[1],> 9.00
same,pKd,[2],7.00 to 9.00
same,residence time,[2]; read-out: Residence time,≥ 10 min
"Nc1nc2c(c(N3CCC(F)(F)C3)n1)CCCN2 [Example 63, 4-(3,3-Difluoro-pyrrolidin-1-yl)-5,6,7,8-tetrahydro-pyrido[2,3-d]pyrimidin-2-ylamine]",pIC50,[1],> 9.00
same,pKd,[2],7.00 to 9.00
"Nc1nc(NC2CC2)cc(N2CC[C@@](O)(C(F)(F)F)C2)n1 [Example 49, (S)-1-(2-Amino-6-cyclopropylamino-pyrimidin-4-yl)-3-trifluoromethyl-pyrrolidin-3-ol]",pIC50,[1],> 9.00
same,pKd,[2],7.00 to 9.00
"CC1Cc2ccccc2N1c1cc(NC2CC2)nc(N)n1 (stereo not shown) [Example 58, N4-Cyclopropyl-6-(2-methyl-2,3-dihydro-indol-1-yl)-pyrimidine-2,4-diamine]",pIC50,[1],7.00 to 9.00
same,pKd,[2],7.00 to 9.00
"CNc1cc(N2CCCCC2c2cc3ccccc3o2)nc(N)n1 (stereo not shown) [Example 81, 6-(2-Benzofuran-2-yl-piperidin-1-yl)-N4-methyl-pyrimidine-2,4-diamine]",pIC50,[1],> 9.00
same,pKd,[2],7.00 to 9.00
"Nc1nc(NC2CC2)cc(N2CCCC2=O)n1 [Example 94, 1-(2-Amino-6-cyclopropylamino-pyrimidin-4-yl)-pyrrolidin-2-one]",pIC50,[1],< 7.00
same,pKd,[2],< 7.00
"CC1(O)CCN(c2cc(NC3CC3)nc(N)n2)C1 (stereo not shown) [Example 43, 1-(2-Amino-6-cyclopropylamino-pyrimidin-4-yl)-3-methyl-pyrrolidin-3-ol]",pIC50,[1],7.00 to 9.00
same,pKd,[2],7.00 to 9.00
"C[C@@]1(O)CCN(c2cc(NC3CC3)nc(N)n2)C1 [Example 52, (R)-1-(2-Amino-6-cyclopropylamino-pyrimidin-4-yl)-3-methyl-pyrrolidin-3-ol]",pIC50,[1],7.00 to 9.00
same,pKd,[2],7.00 to 9.00
"FC1(F)CCN(c2ncnc3c2CCCN3)C1 [Example 74, 4-(3,3-Difluoro-pyrrolidin-1-yl)-5,6,7,8-tetrahydro-pyrido[2,3-d]pyrimidine]",pIC50,[1],< 7.00
"CNc1cc(N2CCC[C@@](O)(c3ccccc3)C2)nc(N)n1 (single isomer, unassigned) [Example 90]",pIC50,[1],7.00 to 9.00
"CNc1cc(N2C(=O)CC[C@H]2CO)nc(N)n1 [Example 99, (S)-1-(2-Amino-6-methylamino-pyrimidin-4-yl)-5-hydroxymethyl-pyrrolidin-2-one]",pIC50,[1],< 7.00
"NC(=O)[C@@H]1CCN(c2cc(NC3CC3)nc(N)n2)C1 [Example 59, (R)-1-(2-Amino-6-cyclopropylamino-pyrimidin-4-yl)-pyrrolidine-3-carboxylic acid amide]",pIC50,[1],7.00 to 9.00
"CNc1cc(N2CCCC2Cc2ccccc2OC)nc(N)n1 (stereo not shown) [Example 82, 6-[2-(2-Methoxy-benzyl)-pyrrolidin-1-yl]-N4-methyl-pyrimidine-2,4-diamine]",pIC50,[1],> 9.00
"CNc1cc(N2CCCC2C(C)C)nc(N)n1 (stereo not shown) [Example 101, 6-(2-Isopropyl-pyrrolidin-1-yl)-N4-methyl-pyrimidine-2,4-diamine-formate]",pIC50,[1],> 9.00
"Nc1nc(NC2CC2)cc(N2C(=O)CCC2c2ccc(Cl)cc2)n1 (stereo not shown) [Example 104, 1-(2-Amino-6-cyclopropylamino-pyrimidin-4-yl)-5-(4-chloro-phenyl)-pyrrolidin-2-one]",pIC50,[1],< 7.00
